Assays:
[1] = test system: mouse acute lung injury model; assay: Mouse acute lung injury model (LPS), ELISA; format: in vivo, C57BL/6 mice; conditions: title: serum (text b290: lung tissues), 12 μmol/kg
Method: In addition to the normal group injected intragastrically with PBS, other mice were injected intraperitoneally with LPS (7.5 mg/kg) to establish acute lung injury models. Three days before model establishment, the parent drug 1 (0.4 and 4 μmol/kg), the hydrochloride 22 (0.4 and 4 μmol/kg), the fumarate 23 (0.4 and 4 μmol/kg) and the positive drug Dex (12 μmol/kg) were administered intragastrically in advance, and LPS (7.5 mg/kg) was injected intraperitoneally half an hour after administration on the third day.
abdominal cavity was opened. The lungs were taken out, and rinsed twice with pre-cooled PBS. […] The remaining tissues were frozen at −70° C. for subsequent use.
20 mg of lung tissues were accurately weighed, rinsed with pre-cooled PBS solution, cut into small pieces by ophthalmic surgical scissors, and put into a glass homogenizer, into which was added 180 μL PBS (containing 1 mM PMSF). The mixture was homogenized at 60 HZ for 180 s, and centrifuged at 3000 rpm/min at 4° C. for 20 min. 1 μL supernatant was taken, the protein concentration of which was measured with Nanodrop and leveled, and could be used for subsequent experiments.

mouse sepsis model = assay: Mouse sepsis model (LPS), Q-PCR of inflammatory factors; format: in vivo, C57BL/6 mice; parameters: key: relative mRNA by 2^−ΔΔCt, normalized to Gapdh; conditions: 12 μmol/kg i.g.
Text: The mice were randomly divided into 8 groups, one of which was randomly selected as the normal group, and the other 7 groups were the model group, the parent drug 1 (0.4 and 4 μmol/kg), the hydrochloride 22 (4 μmol/kg), the fumarate 23 (0.4 and 4 μmol/kg) and dexamethasone (Dex, 12 μmol/kg) groups, respectively, with 6 mice in each group. 5 days before model establishment, the parent drug 1 (0.4 and 4 μmol/kg), the hydrochloride 22 (4 μmol/kg), the fumarate 23 (0.4 and 4 μmol/kg) and Dex (12 μmol/kg) were administered intragastrically. The mice in the normal group and model group were administered intragastrically the same volume of the solvent 0.5% CMC-Na. LPS (10 mg/kg) was injected intraperitoneally 1 hour after administration on the last day to establish a mouse sepsis model.
At 6 h after intraperitoneal injection of LPS, the mice were sacrificed by cervical dislocation, and the abdominal cavity was opened. The lungs, livers and kidneys were taken out, and rinsed twice with pre-cooled PBS. The lung tissues, liver left lobe tissues and kidney tissues of the mice were cut, and fixed with 4% paraformaldehyde for 24-48 h. The remaining tissues were frozen at −70° Cfor subsequent use.
20 mg of kidney, lung and liver tissues were accurately weighed, rinsed with pre-cooled PBS solution, cut into small pieces by ophthalmic surgical scissors, and put into a glass homogenizer, into which was added 1 mL Trizol reagent for grinding to prepare tissue homogenate. Subsequently, the homogenate was transferred into a 1.5 mL EP tube without RNase and lysed on ice for 10 min. 200 μL chloroform was added, and the mixture was shaken violently, stood on ice for 3-5 min, and centrifuged at 12000 rpm and 4° C. for 15 min. The supernatant was aspirated carefully into a new 1.5 mL EP tube without RNase, into which was added the same volume of pre-cooled isopropanol, stood on an ice bath for 30 min, centrifuged at 12000 rpm and 4° C. for 10 min, and the supernatant was discarded. 75% ethanol-DEPC solution was added to wash the precipitate, and the total RNA was obtained by inversion and air drying on flat paper. Subsequently, 10 μL of DEPC treated water was added for dissolution. 1 μL of the total RNA solution was taken, and diluted to 100 times, the OD values of which at 260 nm and 280 nm were measured with a full wavelength microplate reader. If the ratio of OD260/OD280 is between 1.8 and 2.0, it is said that the extracted RNA has a high purity, i.e., it can be used in subsequent experiments.
Subsequent experiments were carried out with 20 μL of a reverse transcription reaction system according to the method described in the kit instructions:
Subsequent experiments were carried out with 20 μL of a reaction system according to the method described in the kit instructions:
The above reagents were added into a micro-reaction tube, sealed with a sealing membrane, and placed in a Q-PCR instrument. The parameters were set according to the following reaction conditions to carry out the amplification experiment. The reaction conditions were as follows:
The threshold cycle (Ct) value of each group was recorded. Calculating and analyzing were carried out by the 2^−ΔΔCt method (the expression level of the control gene Gapdh was set to 1 to correct the expression level of the target gene).

[2] = test system: acute gouty arthritis model rats induced by MSU; assay: Rat acute gouty arthritis model induced by MSU; format: in vivo, SD rats
Method: During the adaptive feeding period, 2% pentobarbital sodium was used to anesthetize the rats by intraperitoneal injection at a dose of 0.25 mL/100 g. The circumferences of the ankle joints of the parent left hind limbs of the rats were measured. After the adaptive feeding, 2% pentobarbital sodium was used for intraperitoneal injection anesthesia at a dose of 0.25 mL/100 g. After the anesthesia, 8 rats were randomly selected as the blank group, and normal saline was injected into the joint cavity of their left hind limbs. The other rats were injected with 200 μL sodium urate into the joint cavity of the left hind limbs. 6 h after the model establishment, the rats were anesthetized with pentobarbital sodium, and the joint circumference was measured with a 2 mm wide paper strip. According to the joint swelling ratio, the rats were divided into seven groups.
Administration was carried out once at 10.5 h and 22.5 h after the model establishment, respectively.
Joint swelling is one of the main characteristics of acute gouty arthritis model rats induced by MSU. Before the model establishment, and at 6 h, 12 h and 24 h after the model establishment, the circumferences of the ankle joints of the left hind limbs were measured respectively, and the joint swelling ratios were calculated. The circumferences at 0.5 mm below the ankle joints of the left hind feet of rats in each group were measured with a 2 mm wide paper strip and a ruler, the measurement was repeated twice, and the average value was taken to calculate the joint swelling ratio.
Joint swelling ratio=(joint circumference at test time point−initial joint circumference)/initial joint circumference

[3] = Table 12, title 'in lung' (text b281: liver)

For `C[C@@H]1C[C@H]2[C@@H]3CCC4=CC(=O)C=C[C@]4(C)[C@@]3(F)[C@@H](O)C[C@]2(C)[C@@]1(O)C(=O)CO` [Dex, dexamethasone, reference compound], the IL-1β [1] was 1873.00 ± 86.52 pg/mL, the IL-6 [1] was 1423.00 ± 168.40 pg/mL and the “Il1 mRNA expression” value (mouse sepsis model; [3]) was 7.54 ± 0.70. For the same compound, the “Il6 mRNA expression” value (mouse sepsis model; [3]) was 4.27 ± 1.33, the “Tnf mRNA expression” value (mouse sepsis model; [3]) was 7.04 ± 0.77 and the “Il1 mRNA expression” value (mouse sepsis model; kidney) was 6.05 ± 1.03. For the same compound, the “Il6 mRNA expression” value (mouse sepsis model; kidney) was 5.76 ± 0.72, the “Tnf mRNA expression” value (mouse sepsis model; kidney) was 6.62 ± 0.68 and the “Il1 mRNA expression” value (mouse sepsis model; lung) was 7.20 ± 0.36. For the same compound, the “Il6 mRNA expression” value (mouse sepsis model; lung) was 9.88 ± 0.80 and the “Tnf mRNA expression” value (mouse sepsis model; lung) was 8.99 ± 0.76.

With `COc1cc2c(c(OC)c1OC)-c1ccc(OC)c(=O)cc1[C@@H](NC(C)=O)CC2` [colchicine] the joint swelling ratio ([2]; 6 h after model establishment (before dosing), 0.5 mg/kg i.g.) was 16.15 ± 1.37, the joint swelling ratio ([2]; 12 h after model establishment, 0.5 mg/kg i.g.) was 29.10 ± 3.17 and the joint swelling ratio ([2]; 24 h after model establishment, 0.5 mg/kg i.g.) was 23.28 ± 2.14.

In the case of `C[C@]12C=CC(=O)C=C1CC[C@@H]1[C@@H]2[C@@H](O)C[C@@]2(C)[C@H]1CC[C@]2(O)C(=O)CO` [prednisolone], the joint swelling ratio ([2]; 6 h after model establishment (before dosing), 3.125 mg/kg i.g.) is reported as 15.78 ± 1.22, the joint swelling ratio ([2]; 12 h after model establishment, 3.125 mg/kg i.g.) is reported as 25.43 ± 2.03 and the joint swelling ratio ([2]; 24 h after model establishment, 3.125 mg/kg i.g.) is reported as 18.48 ± 1.66.

Reference: US20240124409A1, “GUAIANOLIDE SESQUITERPENE LACTONE DERIVATIVES AND PHARMACEUTICAL USE THEREOF” (NANJING UNIVERSITY OF CHINESE MEDICINE, priority 2021, published 2024)
